Results reported in the supplement of paper PMC11919725.

Assays:
Jurkat [1] = assay: confluency relative to DMSO, 18 h (ratio); higher = more viable
Procedure, shortened: (§1)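 Jurkat cells or primary CD4+/CD8+ T cells, either naive or activated for 48 h with CD3/CD28 Dynabeads, were exposed to compound from 1 nM to 10 µM in log10 steps for 18 h at 37 °C and 5% CO2. Afterwards, 100 µl of each suspension was moved into 96-well plates containing IncuCyte Cytotox Dye and alamarBlue. Phase-contrast images were taken at ×10, five per well, every hour for 3 h. Confluency was derived from these images with the IncuCyte Basic Analyzer, and values are expressed relative to the mean of the control wells.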

[2] = system: Primary T cells CD4+ activated; assay: as above
Procedure, shortened: as §1

[3] = system: Primary T cells CD4+ naive; assay: as above
Procedure, shortened: as §1

[4] = system: Primary T cells CD8+ activated; assay: as above
Procedure, shortened: as §1

[5] = system: Primary T cells CD8+ naive; assay: as above
Procedure, shortened: as §1

Jurkat [6] = assay: metabolic activity relative to DMSO, 18 h (ratio); higher = more viable
Procedure, shortened: (§2)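 Metabolic activity values are normalised to the average of vehicle control wells. They come from Jurkat or primary CD4+/CD8+ T cells (naive, or activated 48 h with CD3/CD28 Dynabeads) treated for 18 h at 37 °C, 5% CO2 with compound over 1 nM–10 µM in log10 steps. Then 100 µl of each suspension was mixed in 96-well plates with alamarBlue (10% v/v final), and fluorescence at 544 nm excitation and 584 nm emission was recorded on a FluoStar Omega 3.5 h later.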

[7] = system: Primary T cells CD4+ activated; assay: as above
Procedure, shortened: as §2

[8] = system: Primary T cells CD4+ naive; assay: as above
Procedure, shortened: as §2

[9] = system: Primary T cells CD8+ activated; assay: as above
Procedure, shortened: as §2

[10] = system: Primary T cells CD8+ naive; assay: as above
Procedure, shortened: as §2

Jurkat [11] = assay: cytotoxicity relative to DMSO, 18 h (ratio); higher = less cell death (drugs called cytotoxic fall below 1)
Procedure, shortened: (§3)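 The assay used Jurkat cells or naive or CD3/CD28 Dynabead-activated (48 h) primary CD4+/CD8+ T cells, incubated with compound at 1 nM–10 µM in log10 steps for 18 h at 37 °C, 5% CO2. Cytotoxicity was assessed with IncuCyte Cytotox Dye and IncuCyte fluorescence imaging, corrected for confluency and scaled to mean control signals.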

[12] = system: Primary T cells CD4+ activated; assay: as above
Procedure, shortened: as §3

[13] = system: Primary T cells CD4+ naive; assay: as above
Procedure, shortened: as §3

[14] = system: Primary T cells CD8+ activated; assay: as above
Procedure, shortened: as §3

[15] = system: Primary T cells CD8+ naive; assay: as above
Procedure, shortened: as §3

Cc1[nH]c2ccccc2c1CCNCc1ccc(C=CC(=O)NO)cc1 [Panobinostat]
confluency (Jurkat [1]; 1 nM): 0.912 | confluency (Jurkat [1]; 10 nM): 0.937 | confluency (Jurkat [1]; 100 nM): 1.01 | confluency (Jurkat [1]; 1000 nM): 0.992 | confluency (Jurkat [1]; 10000 nM): 0.978 | confluency ([2]; 1 nM): 1.04 | confluency ([2]; 10 nM): 1.01 | confluency ([2]; 100 nM): 1.17 | confluency ([2]; 1000 nM): 1.35 | confluency ([2]; 10000 nM): 1.02 | confluency ([3]; 1 nM): 1.2 | confluency ([3]; 10 nM): 1.02 | confluency ([3]; 100 nM): 1.29 | confluency ([3]; 1000 nM): 1.13 | confluency ([3]; 10000 nM): 0.869 | confluency ([4]; 1 nM): 0.974 | confluency ([4]; 10 nM): 0.886 | confluency ([4]; 100 nM): 1.04 | confluency ([4]; 1000 nM): 1.26 | confluency ([4]; 10000 nM): 1.21 | confluency ([5]; 1 nM): 1.19 | confluency ([5]; 10 nM): 0.473 | confluency ([5]; 100 nM): 1.08 | confluency ([5]; 1000 nM): 0.774 | confluency ([5]; 10000 nM): 0.932 | metabolic activity (Jurkat [6]; 1 nM): 1.05 | metabolic activity (Jurkat [6]; 10 nM): 0.782 | metabolic activity (Jurkat [6]; 100 nM): 0.681 | metabolic activity (Jurkat [6]; 1000 nM): 0.72 | metabolic activity (Jurkat [6]; 10000 nM): 0.849 | metabolic activity ([7]; 1 nM): 0.998 | metabolic activity ([7]; 10 nM): 0.826 | metabolic activity ([7]; 100 nM): 0.627 | metabolic activity ([7]; 1000 nM): 0.616 | metabolic activity ([7]; 10000 nM): 0.875 | metabolic activity ([8]; 1 nM): 0.856 | metabolic activity ([8]; 10 nM): 0.957 | metabolic activity ([8]; 100 nM): 0.728 | metabolic activity ([8]; 1000 nM): 0.726 | metabolic activity ([8]; 10000 nM): 0.813 | metabolic activity ([9]; 1 nM): 1 | metabolic activity ([9]; 10 nM): 0.909 | metabolic activity ([9]; 100 nM): 0.738 | metabolic activity ([9]; 1000 nM): 0.725 | metabolic activity ([9]; 10000 nM): 0.778 | metabolic activity ([10]; 1 nM): 0.913 | metabolic activity ([10]; 10 nM): 0.881 | metabolic activity ([10]; 100 nM): 0.836 | metabolic activity ([10]; 1000 nM): 0.779 | metabolic activity ([10]; 10000 nM): 0.766 | cytotoxicity (Jurkat [11]; 1 nM): 0.94 | cytotoxicity (Jurkat [11]; 10 nM): 0.843 | cytotoxicity (Jurkat [11]; 100 nM): 0.933 | cytotoxicity (Jurkat [11]; 1000 nM): 0.873 | cytotoxicity (Jurkat [11]; 10000 nM): 0.921 | cytotoxicity ([12]; 1 nM): 1.04 | cytotoxicity ([12]; 10 nM): 1.08 | cytotoxicity ([12]; 100 nM): 1.32 | cytotoxicity ([12]; 1000 nM): 1.5 | cytotoxicity ([12]; 10000 nM): 0.92 | cytotoxicity ([13]; 1 nM): 1.29 | cytotoxicity ([13]; 10 nM): 0.906 | cytotoxicity ([13]; 100 nM): 1.33 | cytotoxicity ([13]; 1000 nM): 1.19 | cytotoxicity ([13]; 10000 nM): 0.853 | cytotoxicity ([14]; 1 nM): 0.993 | cytotoxicity ([14]; 10 nM): 0.888 | cytotoxicity ([14]; 100 nM): 1.11 | cytotoxicity ([14]; 1000 nM): 1.34 | cytotoxicity ([14]; 10000 nM): 1.3 | cytotoxicity ([15]; 1 nM): 1.34 | cytotoxicity ([15]; 10 nM): 0.493 | cytotoxicity ([15]; 100 nM): 1.16 | cytotoxicity ([15]; 1000 nM): 0.814 | cytotoxicity ([15]; 10000 nM): 1.06
